Experimental data published in patent US20130065314A1, “ALGAL TRANSFORMATION SYSTEMS, COMPOSITIONS AND METHODS” (PHYTOCENTRIC BIOTECH INC., priority 2011, published 2013).
Where two headings read alike, the source gives them in different places.

Key:
[1] = test system: C. reinhardtii (Nit1-305,cw-15); assay: Transformation of algal cells with plasmid DNA and CPP, selection on Zeocin plates; assay type: cell-based, Chlamydomonas reinhardtii
Procedure: Transformation experiments were conducted. […] Cell culture was grown in 900 ml of SGII+NH4NO3 medium, divided in 3 aliquots into 500 ml Erlenmeyer flasks each containing 300 ml of the culture. The culture was grown for two days until the cell growth reached mid-log phase and cell density reached to 1×10^6 cells ml^−1 (OD at 680 nm=0.6-0.8). Cells were collected at 3000 rpm for 10 minutes to obtain 9×10^8 cells in total. In all transformation experiments for Chlamydomonas reinhardtii, SGII+NH4NO3 medium was used in downstream experimental steps. […] Cells were washed after grown in SGII-NH4NO3 medium to remove NH4 traces. Cells were divided into 3 aliquots each of 3×10^8 cells. Two aliquots of the harvested cells were treated with cell wall degrading enzymes one with cellulase from Aspergillus niger (Sigma, Canada) and the other with lysozyme from chicken egg white (Sigma, Canada).
Lysozyme treatment: Lysozyme from chicken white egg was purchased (Sigma-Aldrich, Canada). Enzymatic assay protocol was modified from Sigma-Aldrich product information publication. For cell lysis/cell wall disruption, use a freshly prepared lysozyme solution (10 mg/ml) in sterilized 10 mM Tris-HCL, pH 8.0. Add 25 μl of a freshly prepared lysozyme to the required number (−5.0×10^7) of cells/transformation reaction, mix by vortexing for 3 seconds. Incubate the lysis mixture for 15 minutes at 37° C. […] Centrifuge the cells and discard the supernatant containing lysozyme. To stop the reaction, wash the cells twice with media and collect the cells at 3000 rpm for 10 minutes. Proceed to downstream applications and/or transformation experiment.
Cellulase treatment: Cellulase (EC 3.2.1.4) was purchased from Sigma-Aldrich, Canada. Enzymatic assay protocol was modified from Sigma-Aldrich product information publication. Just before use, prepare solution containing 8 units/ml (26.7 mg/ml) of cellulase in sterilized cold distilled water. Add 500 μl of a freshly prepared cellulase solution to the required number (−5.0×10^7) of cells, immediately mix by swirling. Incubate the lysis mixture for 15 minutes at 37° C. […] Centrifuge the cells and discard the supernatant containing lysozyme. To stop the reaction, wash the cells twice and collect the cells at 3000 rpm for 10 minutes. Proceed to downstream applications and/or transformation experiment.
The third aliquot was not treated with any enzyme.
After enzymatic treatments, the cells were washed twice with the medium to stop the reaction. Cells of each aliquot were re-suspended in fresh medium (cell concentration=3×10^8ml^−1) and used 300 μl of cell suspension (−5×10^7 number of cell) in each transformation reaction. Cells were transferred to 15 ml Falcon tube containing sterilized 300 mg glass beads of 0.5 mm size. Just prior to starting the next step, 1 μg plasmid DNA and one of the four ATT(s) tested were mixed. One of the four ATT-plasmid mixtures were added to the algal cells and beads suspended in media. The cells, ATT and DNA mixture and the beads were vortexed for 15 seconds. 10 ml of medium was added to the transformation reaction, and the tubes were incubated overnight with shaking at 100 rpm in incubator to allow cell recovery and expression of the gene. The cell suspensions were transferred to fresh tubes to remove beads and cells were spun by centrifugation for 5 minutes at 3000 rpm. The cells were re-suspended in 2 ml of 0.5% agar medium by gentle pipetting and were plated on 2% agar medium supplemented with 10 μg ml^−1 Zeocin.

linearized plasmid DNA = assay: Gel mobility shift assay of peptide plasmid DNA complex formation; details: 200 ng linearized plasmid DNA, 1% agarose gel
Procedure: Non-covalent attachment was tested using a gel mobility shift assay. The gel mobility shift assay was used to determine the minimum peptide concentration needed bind to plasmid DNA and cause it to shift during electrophoresis. Based on a peptide-DNA charge ratio calculation increasing concentrations of peptide were added to 200 ng of linearized plasmid DNA until the charge of the DNA was neutralized by the peptide causing a mobility shift in the DNA during electrophoresis in a 1% agarose gel.

[2] = test system: C. reinhardtii (Nit1-305,cw-15); assay: PCR screening of transformant colonies (Zeocin specific primers); assay type: cell-based, Chlamydomonas reinhardtii; details: pSP124S linearized with KpnI, no pretreatment; 155 bp expected product (FIG. 11 panel A)
Procedure: Transformed colonies were picked from the selection plates and inoculated into liquid selection media to multiply cells to be used for genomic DNA isolation. Genomic DNA from 1×10^5 cells of untransformed algae and the transformants were isolated using DNeasy™ Blood & Tissue Kit (QIAGEN®). ReadyMix™ Taq PCR Reaction Mix with MgCl2 (Sigma, Canada) was used to prepare 20 μl PCR reactions. Thermal cycling conditions were initial denaturation at 95° C. for 5 minutes and 40 cycles of 95° C. for 30 s, 65° C. for 30 s and 72° C. for 1.5 min. A final primer extension cycle was performed at 72° C. for 10 min.

[3] = pSP124S linearized with EcoRI, 0.5 mm bead disruption, Zeocin 10 μg/ml (FIG. 9)
[4] = pSP124S linearized with KpnI, 0.5 mm bead disruption, Zeocin 10 μg/ml (FIG. 8)

Substance	transformed colonies on selection plate [1, 3]	transformed colonies on selection plate [1, 4]	amount of peptide at which the shift occurred (linearized plasmid DNA) [ng]	transformation rate compared with the other three peptides [1]	transformed colonies on selection plate [1]	PCR product with Zeocin specific primers in transformant colonies [2]
(Arg)9 (RRRRRRRRR) [ATT4]	transformed	transformed	120	–	–	–
Transportan [ATT1]	–	–	339	higher	transformed	Lane 1 is positive
Tat (48-57) (GRKKRRQRRR) [ATT2]	transformed	transformed	80	–	–	Lane 7 and 8 are positive
